# From patent US9492495B2, “Therapeutic use of agonists or antagonists of bradykinin receptor 1 or 2, for modulation collateral blood vessel growth” (MAX-DELBRUECK-CENTRUM FUER MOLEKULARE MEDIZIN, priority 2010, dated 2016)
# Experiments:
# [1] = tested on: cerebral arteriogenesis (posterior cerebral artery collateral pathway); experiment: 3-vessel occlusion (3-VO) cerebral arteriogenesis model: collateral growth / posterior cerebral artery diameter; type: in vivo, rat; conditions: for arteriogenesis (collateral growth) / cerebral arteriogenesis: rat 3-VO model; for arteriogenesis (collateral growth): antagonist treatment, 3 weeks post 3-VO (FIG. 5); for artery diameter changes (posterior cerebral artery) / collateral arterial growth: rat 3-VO, 3 weeks; for artery diameter changes (posterior cerebral artery): compared with untreated controls; for collateral arterial growth: ipsilateral and contralateral collateral pathways (FIGS. 5B and 5C); for cerebral arteriogenesis: BR1 agonist treatment, 1 week post 3-VO (FIG. 6)
# Procedure: Pharmacological modulation of arteriogenesis was analyzed using a 3 vessel occlusion (3-VO) model for cerebral arteriogenesis in the rat (Occlusion of both vertebral arteries and one carotid artery). Upon occlusion of three of four blood-supplying arteries to the brain, blood flow is redistributed by the recruitment of collateral pathways such as the posterior cerebral artery to supply the hypoperfusion area with blood. The 3-VO model in the rat has been established since 2003 and is acknowledged as a hypoperfusion model for testing cerebral arteriogenesis (Busch, Buschmann et al. 2003). By using the 3-VO model, relevant therapeutic stimulation of arteriogenesis was shown for instance by the application of GM-CSF (Buschmann, Circulation 2003). Either by inhibition or stimulation of the bradykinin receptor signaling pathways, arteriogenesis was determined and physiological parameters of the brain were tested. […] The characterization of arteriogenesis was carried out via measurement of the artery or blood vessel diameter (posterior cerebral artery-PCA) in addition to via a measurement of the cerebrovascular reactivity (perfusion reserves in the brain). Cerebrovascular anatomy was studied after maximal vasodilation by a modification of the postmortem latex perfusion method of Maeda et al (Maeda, Hata et al. 1998).
# [2] = tested on: cerebrovascular reactivity (perfusion reserves in the brain); experiment: 3-VO cerebral arteriogenesis model: cerebrovascular reactivity (acetazolamide, laser-doppler); type: in vivo; conditions: rat; for cerebrovascular reactivity (CVR), increase in blood flow: three weeks after 3-VO (FIG. 5D)
# Procedure: Pharmacological modulation of arteriogenesis was analyzed using a 3 vessel occlusion (3-VO) model for cerebral arteriogenesis in the rat (Occlusion of both vertebral arteries and one carotid artery). Upon occlusion of three of four blood-supplying arteries to the brain, blood flow is redistributed by the recruitment of collateral pathways such as the posterior cerebral artery to supply the hypoperfusion area with blood. The 3-VO model in the rat has been established since 2003 and is acknowledged as a hypoperfusion model for testing cerebral arteriogenesis (Busch, Buschmann et al. 2003). By using the 3-VO model, relevant therapeutic stimulation of arteriogenesis was shown for instance by the application of GM-CSF (Buschmann, Circulation 2003).
# The characterization of arteriogenesis was carried out via measurement of the artery or blood vessel diameter (posterior cerebral artery—PCA) in addition to via a measurement of the cerebrovascular reactivity (perfusion reserves in the brain). Cerebrovascular anatomy was studied after maximal vasodilation by a modification of the postmortem latex perfusion method of Maeda et al (Maeda, Hata et al. 1998).
# CVR is reduced through selective inhibition of the bradykinin B1 and B2 signaling pathways. Negative CVR values are based on the Steal phenomenon (Kuwabara, Ichiya et al. 1995). (FIG. 5D). Upon increase of the CO2 partial pressure under normal conditions, vessels in the brain are capable of increasing blood flow to around 20% of the normal blood flow. Directly after the 3-VO experiment no cerebrovascular reactivity is detectable anymore. Blood flow recovers within 3 weeks post 3-VO and the perfusion reserve is restored to around 10%.
# [3] = relative to the natural ligand Lys-desArg-bradykinin; cited from earlier work
# Bradykinin receptor 1 [4] = target: T1, Bradykinin receptor 1 (Homo sapiens, UniProt P46663); conditions: described as moderate; cited from earlier work
# T1 sequence (P46663 1-353): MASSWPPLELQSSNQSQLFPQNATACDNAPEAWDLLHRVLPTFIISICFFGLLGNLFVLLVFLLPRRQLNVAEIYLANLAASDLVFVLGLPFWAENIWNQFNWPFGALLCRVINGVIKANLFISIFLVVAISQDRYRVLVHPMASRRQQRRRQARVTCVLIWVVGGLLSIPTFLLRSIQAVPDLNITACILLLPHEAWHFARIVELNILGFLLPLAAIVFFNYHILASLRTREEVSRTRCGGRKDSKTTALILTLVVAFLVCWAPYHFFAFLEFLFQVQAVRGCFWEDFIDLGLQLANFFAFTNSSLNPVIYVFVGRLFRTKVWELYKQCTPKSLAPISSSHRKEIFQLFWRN
# Bradykinin receptor 1 [5] = target: T1, Bradykinin receptor 1; conditions: described as moderate; cited from earlier work; remark: listed apart in the source
Compound,arteriogenesis (collateral growth) [1],artery diameter changes (posterior cerebral artery) [1],collateral arterial growth [1],"cerebrovascular reactivity (CVR), increase in blood flow [2]",susceptibility toward proteolysis [3],cerebral arteriogenesis [1],cerebral arteriogenesis ([1]; listed as Sar[DPhe8]desArg-bradykinin),"diameter of the posterior cerebral artery (PCA) ([1]; rat, seven days after 3-VO, versus untreated rats after 3-VO (FIG. 6B,C))",affinity relative to the natural ligand Lys-desArg-bradykinin (Bradykinin receptor 1 [4]),potency relative to the natural ligand Lys-desArg-bradykinin (Bradykinin receptor 1 [5]),cerebrovascular reactivity (CVR) ([2]; 1 week post 3-VO (FIG. 6D))
"NC(N)=NCCC[C@@H](N)C(=O)N[C@@H](CCCN=C(N)N)C(=O)N1CCC[C@H]1C(=O)N1C[C@H](O)C[C@H]1C(=O)NCC(=O)N[C@@H](Cc1cccs1)C(=O)N[C@@H](CO)C(=O)N1Cc2ccccc2C[C@@H]1C(=O)N1[C@H](C(=O)N[C@@H](CCCN=C(N)N)C(=O)O)C[C@@H]2CCCC[C@@H]21 [HOE-140, icatibant]",inhibited,reduced collateral growth,slightly,no increase in blood flow is detected,,,,,,,
Sar-[D-Phe8]-des-Arg9-bradykinin [R838],,,,,lower susceptibility toward proteolysis,stimulated therapeutically,therapeutically enhanced,significantly greater,about 11 fold less,~2 fold less,significantly increased
"(Des-Arg^9, Leu^8)-bradykinin [H1960]",inhibited,increase in diameter to a lesser extent than in the untreated controls,strongly reduced,no increase in blood flow is detected,,,,,,,
